Results taken from patent US8030043B2, “β-galactoside-α2,3-sialyltransferase, a gene encoding thereof, and a method for producing thereof” (Japan Tobacco Inc., priority 2005, dated 2011).

Tests used:
[1] = system: α2,3-sialyltransferase derived from strain JT-ISH-467; test: Sialic acid transfer to monosaccharides and disaccharides by partially purified α2,3-sialyltransferase (CMP-14C-NeuAc donor, radioactivity of column eluate); assay type: biochemical, Photobacterium phosphoreum; details: 25° C., 4 hours; acceptor 10 μmol (200 mM); CMP-14C-NeuAc 400 nmol; sialyltransferase 0.13 mU; NaCl 500 mM
Method: A cell homogenate prepared from the strain JT-ISH-467 was partially purified by ion exchange chromatography, hydroxyapatite chromatography, and gel filtration chromatography. The thus partially purified α2,3-sialyltransferase was used in the following experiment in order to confirm the transfer of sialic acid to various monosaccharides and disaccharides.
The enzymatic reaction was carried out at 25° C. for 4 hours in a reaction solution (24 μl) prepared to contain CMP-^14C-NeuAc as a glycosyl donor substrate (400 nmol (15600 cpm), final concentration in the reaction solution: 16.6 mM), any of various glycosyl acceptor substrates (10 μmol, final concentration in the reaction solution: 200 mM), sialyltransferase (0.13 mU) and NaCl (final concentration in the reaction solution: 500 mM). The monosaccharides and disaccharides used as glycosyl acceptor substrates were the following 6 substances: methyl-α-D-galactopyranoside (Gal-α-OMe), methyl-β-D-galactopyranoside (Gal-β-OMe), N-acetylgalactosamine (GalNAc), lactose (Gal-β1,4-Glc), N-acetyllactosamine (Gal-β1,4-GlcNAc), and methyl-β-D-galactopyranosyl-β-1,3-N-acetylglucosaminide (Gal-β1,3-GlcNAc-β-OMe).
(§1) After completion of the enzymatic reaction, 1.98 ml of 5 mM phosphate buffer (pH 6.8) was added to the reaction solution to stop the enzymatic reaction. Then, the enzymatic reaction solution was diluted with 5 mM phosphate buffer (pH 6.8) and applied in a volume of 2 ml to a AG1-×2 Resin (PO4^3− form, 0.2×2 cm) column. This column was prepared as follows: AG1-×2 Resin (OH^− form, BIO-RAD) was suspended in 1 M phosphate buffer (pH 6.8), and after 30 minutes, the resin was washed with distilled water and then suspended in distilled water. The eluate (0 to 2 ml) from this column was measured for its radioactivity. The eluate from this column contains the unreacted glycosyl acceptor substrate and the ^14C-NeuAc (N-acetylneuraminic acid)-bound reaction product which was generated by the reaction, but unreacted CMP-^14C-NeuAc is still retained on the column. Thus, the radioactivity of ^14C from each sialic acid-containing sugar chain generated as a result of the enzymatic reaction arises exclusively from the reaction product, so that the radioactivity of this fraction can be used to calculate the enzyme activity.
(§2) In the manner described above, the radioactivity of NeuAc transferred to each glycosyl acceptor substrate was measured to calculate the amount of transferred sialic acid.

[2] = system: ISH467-N2C0 recombinant β-galactoside-α2,3-sialyltransferase; test: Acceptor substrate specificity of recombinant β-galactoside-α2,3-sialyltransferase (mono-, di-, trisaccharides); assay type: biochemical, Photobacterium phosphoreum
Excerpt: (§3) Cell homogenates prepared from E. coli cells introduced with the third clone of ISH467-N2C0, the first clone of ISH224-N1C0 and the first clone of FAJ-N1C0 were each purified by ion exchange chromatography and hydroxyapatite chromatography to give an electrophoretically single band. The thus purified β-galactoside-α2,3-sialyltransferases were used in the following experiment in order to examine the presence or absence of sialyltransferase activity toward various monosaccharides, disaccharides and trisaccharides.
(§4) A reaction solution (24 μl) was prepared to contain CMP-^14C-NeuAc-containing CMP-NeuAc as a glycosyl donor substrate ([…], final concentration in the reaction solution: […]), any of various glycosyl acceptor substrates dissolved in 20 mM cacodylate buffer (pH 5.0) (1 μmol, final concentration in the reaction solution: 42 mM), sialyltransferase (in an amount as indicated in the footnotes of the tables below) and NaCl (final concentration in the reaction solution: 500 mM), and reacted under conditions as indicated in the footnotes of the tables below. The monosaccharides used as glycosyl acceptor substrates were the following 10 types: methyl-α-D-galactopyranoside (Gal-α-OMe), methyl-(β-D-galactopyranoside (Gal-β-OMe), methyl-α-D-glucopyranoside (Glc-α-OMe), methyl-β-D-glucopyranoside (Glc-β-OMe), methyl-α-D-mannopyranoside (Man-α-OMe), methyl-β-D-mannopyranoside (Man-β-OMe), methyl-α-D-fucopyranoside (Fuc-α-OMe), methyl-β-D-fucopyranoside (Fuc-β-OMe), N-acetylgalactosamine (GalNAc), and N-acetylglucosamine ([…]). The disaccharides used were the following 5 types: lactose (Gal-β1,4-Glc), N-acetyllactosamine (Gal-β1,4-GlcNAc), methyl-β-D-galactopyranosyl-β1,3-N-acetylglucosaminide (Gal-β1,3-GlcNAc-β-OMe), methyl-α-D-galactopyranosyl-α1,3-galactopyranoside (Gal-α-1,3-Gal-α-OMe), and methyl-β-D-galactopyranosyl-β1,3-galactopyranoside (Gal-β1,3-Gal-β-OMe). The trisaccharide used was 2′-fucosyllactose (Fuc-α1,2-Galβ1,4-Glc). It should be noted that the final concentration was set to 8.4 mM for the sugar chains shown in Table 18, i.e., methyl-α-D-galactopyranosyl-α1,3-galactopyranoside (Gal-α1,3-Gal-α-OMe), methyl-β-D-galactopyranosyl-β1,3-galactopyranoside (Gal-β1,3-Gal-β-OMe) and 2′-fucosyllactose (Fuc-α1,2-Gal-β1,4-Glc).
as §1, with “a AG1−×2” for “a AG1-×2”, “follows: AG1-x 2” for “follows: AG1-×2”, “unreacted CMP-14C-NeuAc” for “unreacted CMP-^14C-NeuAc”
as §2

[3] = system: ISH224-N1C0 recombinant β-galactoside-α2,3-sialyltransferase; test: as above; assay type: biochemical, Photobacterium sp.
Excerpt: as §3, §4
as §1, with “a AG1−×2” for “a AG1-×2”, “follows: AG1-x 2” for “follows: AG1-×2”, “unreacted CMP-14C-NeuAc” for “unreacted CMP-^14C-NeuAc”
as §2

[4] = system: FAJ-N1C0 recombinant β-galactoside-α2,3-sialyltransferase; test: Acceptor substrate specificity of recombinant β-galactoside-α2,3-sialyltransferase (mono-, disaccharides); assay type: biochemical, Vibrio sp.; set-up: FAJ-N1C0 Sialyltransferase activity Relative activity (%): tested at 42 mM; details: 20° C., 14 hours; for FAJ-N1C0 Sialyltransferase activity: Table 16: 1 μmol acceptor, pH 5.0, about 2.5 mU enzyme; for FAJ-N1C0 Sialyltransferase activity Relative activity (%): Table 16: activity toward lactose set to 100
Excerpt: as §3, §4
as §1, with “a AG1−×2” for “a AG1-×2”, “follows: AG1-x 2” for “follows: AG1-×2”, “unreacted CMP-14C-NeuAc” for “unreacted CMP-^14C-NeuAc”
as §2

[5] = Table 16: 1 μmol acceptor, pH 5.0, about 2.5 mU enzyme, 20° C., 14 hours
[6] = Table 16: activity toward lactose set to 100, 20° C., 14 hours
[7] = Table 17: 1 μmol acceptor, pH 5.0, 2.3 mU per reaction, 30° C., 0.5 minutes or 2 minutes
[8] = Table 17: activity toward lactose set to 100, 30° C., 0.5 minutes or 2 minutes
[9] = Table 18: activity toward lactose set to 100, 0.2 μmol acceptor, 30° C., 2 minutes
[10] = Table 17: 1 μmol acceptor, pH 5.0, 1.0 mU per reaction, 30° C., 0.5 minutes or 2 minutes

Row | Structure (SMILES) | Amount of transferred sialic acid [1] [nmol] | ISH467-N2C0 Sialyltransferase activity [2, 5] [nmol/min] | ISH467-N2C0 Sialyltransferase activity Relative activity (%) [2, 6] [%] | ISH467-N2C0 Sialyltransferase activity [2, 7] [nmol/min] | ISH467-N2C0 Sialyltransferase activity Relative activity (%) [2, 8] [%] | ISH467-N2C0 Sialyltransferase activity ([2]; Table 18: 0.2 μmol acceptor (8.4 mM), pH 5.0, 23 mU per reaction, 30° C., 2 minutes) [nmol/min] | ISH467-N2C0 Sialyltransferase activity Relative activity (%) [2, 9] [%] | ISH224-N1C0 Sialyltransferase activity [3, 5] [nmol/min] | ISH224-N1C0 Sialyltransferase activity Relative activity (%) [3, 6] [%] | ISH224-N1C0 Sialyltransferase activity [3, 10] [nmol/min] | ISH224-N1C0 Sialyltransferase activity Relative activity (%) [3, 8] [%] | ISH224-N1C0 Sialyltransferase activity ([3]; Table 18: 0.2 μmol acceptor (8.4 mM), pH 5.0, 1.0 mU per reaction, 30° C., 2 minutes) [nmol/min] | ISH224-N1C0 Sialyltransferase activity Relative activity (%) [3, 9] [%] | FAJ-N1C0 Sialyltransferase activity [4] [nmol/min] | FAJ-N1C0 Sialyltransferase activity Relative activity (%) [4] [%]
1 | OC[C@H]1O[C@@H](O[C@H]2[C@H](O)[C@@H](O)C(O)O[C@@H]2CO)[C@H](O)[C@@H](O)[C@H]1O (some centres unmarked) [Lactose, lactose] | 57.9 | 7.8 | 100 | 2.29 | 100 | 1.64 | 100 | 8.4 | 100 | 1.03 | 100 | 1.51 | 100 | 7.6 | 100
2 | CO[C@H]1O[C@H](CO)[C@H](O)[C@H](O)[C@H]1O [Methylαgalactopyranoside, methyl-α-D-galactopyranoside] | 60.0 | 10.5 | 134 | 10.38 | 452 |  |  | 9.5 | 113 | 8.49 | 823 |  |  | 10.3 | 135
3 | CO[C@@H]1O[C@H](CO)[C@H](O)[C@H](O)[C@H]1O [Methylβgalactopyranoside, methyl-β-D-galactopyranoside] | 50.2 | 9.1 | 116 | 5.77 | 251 |  |  | 8.9 | 105 | 3.54 | 343 |  |  | 8.7 | 114
4 | CC(=O)N[C@H]1C(O)O[C@H](CO)[C@H](O)[C@@H]1O (some centres unmarked) [N-Acetylgalactosamine, N-acetylgalactosamine] | 37.8 | 5.4 | 69 | 0.99 | 43 |  |  | 5.8 | 69 | 0.78 | 76 |  |  | 4.4 | 58
5 | CO[C@@H]1O[C@H](CO)[C@@H](O)[C@H](O[C@@H]2O[C@H](CO)[C@H](O)[C@H](O)[C@H]2O)[C@H]1NC(C)=O [methyl-β-D-galactopyranosyl-β1,3-N-acetylglucosaminide] | 71.1 | 9.6 | 122 | 2.95 | 129 |  |  | 9.4 | 111 | 1.98 | 192 |  |  | 9.4 | 124
